The subject of one assay is KMS-Cell. The experiment in a line: KMS cell IC50 (Table 4). The assay is classed as cell-based. Conditions: KMS cells.
Assay [1] concerns the target T1, full length recombinant Pim-2 protein (Homo sapiens, UniProt Q9P1W9).
T1 construct: by full length recombinant Pim-1, Pim-2, or Pim-3 protein; hexahistidine tag followed by a thrombin cleavage site (N); made in house; host or cells: Sf9 (baculovirus) or E. coli (pET28)
The experiment in a line: Pim-2 enzyme assay (HTRF, phosphorylation of biotinylated-BAD (S112) peptide). The assay is classed as biochemical. As to conditions: read-out: Pim2_IC50. In outline:
(§1)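 Kinase: full-length human Pim-1/Pim-2, His6-thrombin tagged. Substrate biotin-BAD (S112) peptide. Buffer 60 mM Hepes pH 7.0, 0.05% BSA, 2 mM DTT. Stop 3 mM EDTA. Detection HTRF (Eu anti-pBAD/SA-APC). IC50 by 4-parameter logistic on POC.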
In general terms: In TR-FRET formats the signal depends on donor and acceptor labels being close together.

In assay [2] the target is T2, full length recombinant Pim-1 protein (Homo sapiens, UniProt P11309).
T2 construct: by full length recombinant Pim-1, Pim-2, or Pim-3 protein; hexahistidine tag followed by a thrombin cleavage site (N); made in house; host or cells: Sf9 (baculovirus) or E. coli (pET28)
The experiment in a line: Pim-1 enzyme assay (HTRF, phosphorylation of biotinylated-BAD (S112) peptide). It counts as biochemical. Conditions: read-out: Pim_1_IC50. The essentials: as §1

Where only a bound is given, the exact number is not on record here.

T1 sequence (Q9P1W9 whole entry): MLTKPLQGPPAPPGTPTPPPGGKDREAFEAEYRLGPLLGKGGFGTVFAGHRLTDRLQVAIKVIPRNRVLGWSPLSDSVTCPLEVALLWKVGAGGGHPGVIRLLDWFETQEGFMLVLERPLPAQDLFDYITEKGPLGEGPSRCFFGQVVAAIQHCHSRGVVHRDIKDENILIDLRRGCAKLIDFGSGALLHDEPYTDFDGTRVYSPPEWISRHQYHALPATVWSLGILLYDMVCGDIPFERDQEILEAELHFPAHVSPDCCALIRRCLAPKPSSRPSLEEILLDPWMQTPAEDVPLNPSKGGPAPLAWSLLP
T2 sequence (P11309 whole entry): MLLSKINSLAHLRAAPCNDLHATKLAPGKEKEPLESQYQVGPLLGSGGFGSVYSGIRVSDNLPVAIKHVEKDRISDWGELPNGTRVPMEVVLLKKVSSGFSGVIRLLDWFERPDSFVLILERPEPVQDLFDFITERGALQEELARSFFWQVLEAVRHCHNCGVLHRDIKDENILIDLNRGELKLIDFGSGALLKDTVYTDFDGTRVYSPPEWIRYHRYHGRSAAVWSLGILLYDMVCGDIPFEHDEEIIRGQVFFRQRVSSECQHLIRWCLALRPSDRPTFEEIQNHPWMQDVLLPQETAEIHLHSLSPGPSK

As to `CC(C)C1CCNCC1Oc1cncc(-c2n[nH]c3ccc(-c4c(F)cccc4F)cc23)n1` (single isomer, unassigned) [Example 395], the values for the IC50 (with KMS-Cell; in assay [1]; in assay [2]) were 10000 nM, 9 nM and 6 nM, respectively.
As to `Fc1cccc(F)c1-c1ccc2[nH]nc(-c3cncc(OC4C=CCNC4)n3)c2c1` (single isomer, unassigned) [Example 427], the IC50 in the assay on KMS-Cell is more than 15800 nM; in assay [1], 37 nM; in assay [2], 13 nM.
With `Fc1cccc(F)c1-c1ccc2[nH]nc(-c3cncc(OC4CCNCC45CC5)n3)c2c1` (single isomer, unassigned) [Example 430], the IC50 came to 7850 nM in the assay on KMS-Cell, 6 nM in assay [1] and 1 nM in assay [2].
With `Fc1cccc(F)c1-c1ccc2[nH]cc(-c3cncc(OC4CNCCC45CC5)n3)c2c1` (single isomer, unassigned) [Example 438], the IC50 in the assay with KMS-Cell stood at 11900 nM; in assay [1] it was 2 nM; in assay [2], 1 nM.
The corresponding values for `CC1CNCC(Oc2cncc(-c3n[nH]c4ccc(-c5c(F)cccc5F)cc34)n2)C1` (single isomer, unassigned) [Example 469] are 3050 nM, 4 nM and 2 nM.
As to `CC1CNCC(Oc2nc(O)cc(-c3n[nH]c4ccc(-c5c(F)cccc5F)cc34)n2)C1` (single isomer, unassigned) [Example 568], the IC50 in the assay with KMS-Cell worked out at 2090 nM; in assay [1], 21 nM; in assay [2] it was 20 nM.
The corresponding values for `CC1CNCC(Oc2nc(O)cc(-c3n[nH]c4ccc(-c5c(F)cccc5F)cc34)n2)C1` (single isomer, unassigned) [Example 569] are 282 nM, 1 nM and 1 nM.
Take `O=C(NC1CC1)c1cccc(-c2ccc3[nH]nc(-c4cncc(O[C@H]5CNCCC56CC6)n4)c3c2)c1` [Example 247, 3-(3-(6-((4R)-6-azaspiro[25]oct-4-yloxy)-2-pyrazinyl)-1H-indazol-5-yl)-N-cyclopropylbenzamide]: the IC50 in the assay on KMS-Cell stood at 4310 nM; in assay [1], 4 nM; in assay [2], 4 nM.
On to `CC(C)c1ccc2[nH]nc(-c3cncc(O[C@H]4CNCCC45CC5)n3)c2c1` [Example 253, 3-(6-((4R)-6-azaspiro[2.5]oct-4-yloxy)-2-pyrazinyl)-5-(1-methylethyl)-1H-indazole], for which the IC50 with KMS-Cell came to 5580 nM; in assay [1], 9 nM; in assay [2] it was 9 nM.
For `C=C(C)c1ccc2[nH]nc(-c3cncc(O[C@H]4CNCCC45CC5)n3)c2c1` [Example 256, 3-(6-((4R)-6-azaspiro[2.5]oct-4-yloxy)-2-pyrazinyl)-5-(1-methylethenyl)-1H-indazole], the IC50 with KMS-Cell amounted to 3280 nM; in assay [1], 11 nM; in assay [2], 6 nM.
Turning to `C=C(c1ccc2[nH]nc(-c3cncc(O[C@H]4CNCCC45CC5)n3)c2c1)C(F)(F)F` [Example 257, 3-(6-((4R)-6-azaspiro[2.5]oct-4-yloxy)-2-pyrazinyl)-5-(1-(trifluoromethyl)ethenyl)-1H-indazole], the IC50 with KMS-Cell came to 1170 nM; in assay [1], 2 nM; in assay [2], 4 nM.
Take `CC(c1ccc2[nH]nc(-c3cncc(O[C@H]4CNCCC45CC5)n3)c2c1)C(F)(F)F` (stereo partly drawn) [Example 258, 3-(6-((4R)-6-azaspiro[25]oct-4-yloxy)-2-pyrazinyl)-5-(2,2,2-trifluoro-1-methylethyl)-1H-indazole]: the IC50 amounted to 3190 nM with KMS-Cell, 6 nM in assay [1] and 9 nM in assay [2].
On the same counts, the results for `FC(F)(F)C1(c2ccc3[nH]nc(-c4cncc(O[C@H]5CNCCC56CC6)n4)c3c2)CC1` [Example 261, 3-(6-((4R)-6-azaspiro[2.5]oct-4-yloxy)-2-pyrazinyl)-5-(1-(trifluoromethyl)cyclopropyl)-1H-indazole] are 1490 nM, 4 nM and 6 nM.
The corresponding values for `CC1(c2ccc3[nH]nc(-c4cncc(O[C@H]5CNCCC56CC6)n4)c3c2)CC1` [Example 262, 3-(6-((4R)-6-azaspiro[2.5]oct-4-yloxy)-2-pyrazinyl)-5-(1-methylcyclopropyl)-1H-indazole] are 2220 nM, 5 nM and 4 nM.
Take `COC(=O)c1ccc2[nH]nc(-c3cncc(O[C@H]4CNCCC45CC5)n3)c2c1` [Example 265, methyl 3-(6-((4R)-6-azaspiro[25]oct-4-yloxy)-2-pyrazinyl)-1H-indazole-5-carboxylate bis(2,2,2-trifluoroacetate)]: the IC50 with KMS-Cell was 5780 nM; in assay [1], 35 nM; in assay [2] it was 9 nM.
Regarding `N#CCc1ccc2[nH]nc(-c3cncc(O[C@H]4CNCCC45CC5)n3)c2c1` [Example 269, (3-(6-((4R)-6-azaspiro[25]oct-4-yloxy)-2-pyrazinyl)-1H-indazol-5-yl)acetonitrile 2,2,2-trifluoroacetate], the IC50 in the assay with KMS-Cell was 7380 nM; in assay [1] it was 99 nM; in assay [2] it was 20 nM.
For `c1cc(-c2ccc3[nH]cc(-c4cncc(O[C@@H]5CCCNC5)n4)c3c2)cc(-c2cc[nH]n2)c1` [Example 351], the IC50 with KMS-Cell is more than 31600 nM; in assay [1], 178 nM; in assay [2], 20 nM.
For the molecule `c1cc(-c2ccc3[nH]cc(-c4cncc(O[C@@H]5CCCNC5)n4)c3c2)cc(-c2nnn[nH]2)c1` [Example 355], the figures for the IC50 (in the assay on KMS-Cell; in assay [1]; in assay [2]) were more than 31600 nM, 104 nM and 20 nM, respectively.
On the same counts, the results for `c1cc(-c2ccc3[nH]cc(-c4cncc(O[C@@H]5CCCNC5)n4)c3c2)cc(-c2ccno2)c1` [Example 356] are 12600 nM, 41 nM and 6 nM.
On to `Cc1nc(-c2cccc(-c3ccc4[nH]cc(-c5cncc(O[C@@H]6CCCNC6)n5)c4c3)c2)cs1` [Example 357], for which the IC50 in the assay on KMS-Cell is more than 31600 nM; in assay [1], 179 nM; in assay [2] it was 13 nM.
On the same counts, the results for `c1ccc(-c2ccc3[nH]cc(-c4cncc(O[C@@H]5CCCNC5)n4)c3c2)cc1` [Example 358] are 8520 nM, 20 nM and 4 nM.
Take `CC[C@@H]1CCNC[C@H]1Oc1cncc(-c2n[nH]c3ccc(-c4c(F)cccc4F)cc23)n1` [Example 397]: the IC50 in the assay with KMS-Cell turned out to be 14300 nM; in assay [1], 144 nM; in assay [2], 20 nM.
The corresponding values for `CC[C@H]1CCNC[C@@H]1Oc1cncc(-c2n[nH]c3ccc(-c4c(F)cccc4F)cc23)n1` [Example 398, 5-(2,6-difluorophenyl)-3-(6-(((3R,4S)-4-ethyl-3-piperidinyl)oxy)-2-pyrazinyl)-1H-indazole] are 10700 nM, 12 nM and 9 nM.
For the molecule `N#Cc1ccccc1-c1ccc2[nH]nc(-c3cncc(O[C@H]4CNCCC45CC5)n3)c2c1` [Example 408], the IC50 in the assay with KMS-Cell worked out at 1300 nM; in assay [1], 1 nM; in assay [2] it was 1 nM.
As for `N#Cc1cccc(F)c1-c1ccc2[nH]nc(-c3cncc(O[C@H]4CNCCC45CC5)n3)c2c1` [Example 409], the IC50 with KMS-Cell came out at 2680 nM; in assay [1] it was 1 nM; in assay [2], 1 nM.
With `N#Cc1ncccc1-c1ccc2[nH]nc(-c3cncc(O[C@H]4CNCCC45CC5)n3)c2c1` [Example 410], the figures for the IC50 (with KMS-Cell; in assay [1]; in assay [2]) were 1750 nM, 7 nM and 9 nM, respectively.
In the case of `N#Cc1ccncc1-c1ccc2[nH]nc(-c3cncc(O[C@H]4CNCCC45CC5)n3)c2c1` [Example 411], the IC50 in the assay on KMS-Cell was 1220 nM; in assay [1], 12 nM; in assay [2], 4 nM.
As for `Fc1ccc(F)c(-c2ccc3[nH]nc(-c4cncc(O[C@H]5CNCCC56CC6)n4)c3c2)c1` [Example 442], the IC50 with KMS-Cell was 6430 nM; in assay [1] it was 4 nM; in assay [2], 2 nM.
For the molecule `Fc1ccc(Cl)cc1-c1ccc2[nH]nc(-c3cncc(O[C@H]4CNCCC45CC5)n3)c2c1` [Example 443], the IC50 in the assay on KMS-Cell came to 4640 nM; in assay [1] it was 5 nM; in assay [2] it was 1 nM.
Consider `Fc1cccc(F)c1-c1ccc2[nH]nc(-c3cncc(OC4CNCC5CC54)n3)c2c1` (stereo not drawn) [Example 444], for which the IC50 with KMS-Cell amounted to 5050 nM; in assay [1], 28 nM; in assay [2], 4 nM.
The corresponding values for `c1cc2[nH]nc(-c3cncc(O[C@H]4CNCCC45CC5)n3)c2cc1C1CC1` [Example 446] are 1730 nM, 5 nM and 3 nM.
On the same counts, the results for `c1cc2[nH]nc(-c3cncc(O[C@H]4CNCCC45CC5)n3)c2cc1C1CCCC1` [Example 447] are 3160 nM, 4 nM and 4 nM.
For the molecule `Fc1ccnc(F)c1-c1ccc2[nH]nc(-c3cncc(O[C@H]4CNCCC45CC5)n3)c2c1` [Example 451], the IC50 with KMS-Cell stood at 1470 nM; in assay [1], 9 nM; in assay [2], 3 nM.
In the case of `Fc1cccc(F)c1-c1ccc2[nH]nc(-c3cncc(OC4CNCC5CC54)n3)c2c1` (stereo not drawn) [Example 452], the IC50 in the assay on KMS-Cell worked out at 9410 nM; in assay [1], 97 nM; in assay [2], 20 nM.
Take `c1cc2[nH]nc(-c3cncc(O[C@H]4CNCCC45CC5)n3)c2cc1C1CCC1` [Example 453]: the IC50 in the assay with KMS-Cell was determined as 4190 nM; in assay [1] it was 7 nM; in assay [2], 4 nM.
